What all share (assay): NCI-60 cell line screen, 48 h
The test system of assay [1] is HCT-116 colon.
Assay [2] relates to IGROV1 ovarian.
In assay [3] the test system is NCI-H460 lung.
Assay [4] relates to ACHN renal.
Assay [5] deals with RXF 393 renal.
In assay [6] the test system is SK-MEL-5 melanoma.
Assay [7] concerns NCI/ADR-RES ovarian.
Assay [8] deals with BT-549 breast.
The test system of assay [9] is A498 renal.
For assay [10], the system named is MDA-N.
Assay [11] has as its system MALME-3M melanoma.
Assay [12] concerns NCI-H522 lung.
Assay [13] concerns MDA-MB-435.
For assay [14], the system named is DU-145 prostate.
Assay [15] concerns SF-295 CNS.
Assay [16] relates to RPMI-8226 leukemia.
The subject of assay [17] is KM12 colon.
For assay [18], the system named is PC-3 prostate.
Assay [19] concerns SNB-75 CNS.
The test system of assay [20] is NCI-H226 lung.

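Cultured in 96-well plates, cells were exposed to test compound for 48 hours across five concentrations. TGI is the concentration that stops growth completely.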 Some results are limits rather than exact numbers.

As for `CCOC(=O)N1CCN(c2nc(C)n(-c3ccccc3)c(=S)c2C#N)CC1`, the TGI in assay [1] is above 100 µM; in assay [2], above 63.4 µM; in assay [3], above 100 µM; in assay [4], above 100 µM; in [5] it was above 100 µM; in [6] it was above 100 µM. Besides, the TGI is above 100 µM in assay [7]; above 100 µM in assay [8]; above 100 µM in assay [9]; above 72.2 µM in assay [10]; above 100 µM in [11]; above 66.3 µM in assay [12]. Further, the TGI in assay [13], in assay [14], in assay [15], in assay [16], in assay [17] and in assay [18] was above 100 µM each time. Moreover, the TGI is above 79.7 µM in [19] and above 100 µM in assay [20].
For `CCC1c2[nH]c3ccccc3c2C[C@H]2C(=O)NC(CCCCNC(=O)OC(C)(C)C)C(=O)N12` (stereo not given in full), the TGI in assay [1] was 94.4 µM; in assay [2], above 100 µM; in assay [3], above 100 µM; in [4], above 100 µM; in assay [5], above 100 µM; in assay [6], 38.8 µM. For the same compound, the TGI is 74.6 µM in [7]; 58.2 µM in assay [8]; above 100 µM in assay [9]; 54.9 µM in assay [10]; 50.5 µM in [11]; 50.9 µM in assay [12]. For the same compound, the TGI is 44.3 µM in assay [13]; above 100 µM in [14]; 62.4 µM in assay [15]; 63.3 µM in assay [16]; 44.7 µM in assay [17]; 58.7 µM in assay [18]. The TGI in assay [19] is 58.2 µM; in assay [20] it was above 100 µM.
In the case of `Cc1ccc2c(c1)C(C1Cc3cccc(C)c3C1=O)OC2=O` (stereo not given), the TGI in [1], in [2], in [3], in [4], in [5] and in assay [6] was above 100 µM each time. The TGI in [7], in [8], in assay [9], in [10], in [11] and in assay [12] was above 100 µM throughout. The TGI in [13] is above 100 µM; in [14], above 100 µM; in assay [15], above 100 µM; in assay [16], 88.3 µM; in [17], above 100 µM; in assay [18], above 100 µM. For the same compound, the TGI in assay [19] and in assay [20] was above 100 µM each time.
As for `C=C(C)[C@@H]1CCC2=C[C@H](OC2=O)[C@@]2(C)C[C@@H]2C(=O)/C=C(/C)C(=O)[C@H]1OC(C)=O`, the TGI in assay [1] was 20.3 µM; in assay [2], above 69.3 µM; in assay [3] it was above 82.3 µM; in [4] it was above 48.2 µM; in [5] it was above 48 µM; in [6] it was 29.7 µM. For the same compound, the TGI in [7] is above 100 µM; in assay [8], 27.4 µM; in assay [9] it was 57.8 µM; in assay [10], above 35.8 µM; in [11] it was 29.8 µM; in assay [12], 17.1 µM. The TGI in assay [13] was above 65.2 µM; in assay [14], 21 µM; in assay [15], above 100 µM; in assay [16] it was 23.5 µM; in assay [17], 42 µM; in assay [18], above 46.1 µM. Besides, the TGI is above 83.5 µM in assay [19] and 58.3 µM in assay [20].
With `CC(=O)OC[C@@]1(C)[C@@H]2[C@@H]3[C@@]4(CO[C@]3(C)C(=O)[C@@]3(O)C[C@H](C)[C@H](OC(C)=O)[C@@H]3[C@H]4OC(C)=O)[C@H](OC(=O)c3ccccc3)C[C@@H]21`, the TGI in assay [1], in assay [2], in assay [3], in assay [4], in assay [5] and in [6] was above 100 µM in each case. The TGI in assay [7], in assay [8], in assay [9], in assay [10], in assay [11] and in [12] was above 100 µM in each case. Besides, the TGI in assay [13], in assay [14], in assay [15], in [16], in assay [17] and in assay [18] was above 100 µM each time. In addition, the TGI in assay [19] and in [20] was above 100 µM throughout.
`COC(=O)C1(Cc2cccc(C)c2)Cc2c(C)cccc2C1=O` (stereo not given): the TGI in assay [1], in assay [2], in [3], in assay [4], in assay [5] and in assay [6] was above 100 µM each time. In addition, the TGI in [7] is 72.2 µM; in assay [8], above 100 µM; in assay [9] it was above 100 µM; in assay [10] it was 34.5 µM; in [11], above 100 µM; in [12], 73.3 µM. The TGI in [13] is 41.3 µM; in assay [14] it was above 100 µM; in assay [15] it was above 100 µM; in assay [16], above 100 µM; in assay [17], above 100 µM; in [18], above 100 µM. The TGI in assay [19] and in assay [20] was above 100 µM in each case.
For `CC1(C)CCCCCCC2CC2CCCCCC(C)(C)C1=O` (stereo not given), the TGI in assay [1], in assay [2], in [3], in assay [4], in [5] and in assay [6] was above 100 µM each time. Moreover, the TGI in assay [7], in assay [8], in assay [9], in [10], in assay [11] and in assay [12] was above 100 µM throughout. The TGI in assay [13] is above 100 µM; in [14] it was above 100 µM; in assay [15] it was above 100 µM; in assay [16], 70.1 µM; in [17], above 100 µM; in assay [18], above 100 µM. Besides, the TGI in assay [19] and in assay [20] was above 100 µM each time.

These data come from PubChem BioAssay (NCI).
